Here are results for three compounds from patent US9889093B2, “Application of andrographolide in the preparation of a pharmaceutical for treatment of inflammatory bowel disease, andrographolide enteric targeting micropellet, and method for preparation thereof” (TASLY PHARMACEUTICAL GROUP CO., LTD., priority 2013, dated 2018).

Marks after values point to notes of the source that are not given here.

What all share (assay type): in vivo
Assay [1] concerns TNBS-induced UC rats. In words: TNBS-induced UC rat model, different administration routes. From the text: 4 Dose Designing and Grouping • 4.1 Grouping: quarantine-qualified 84 rats were all used for making UC model. The successful rats were randomly divided into 6 groups: the model control group, the positive control group, the andrographolide low-dose intragastric group, the andrographolide high-dose intragastric group, the andrographolide low-dose intracolonical group and the andrographolide high-dose intracolonical group, 14 rats per group. • 4.2 Dose: the same doses were adopted in both intragastric and intracolonical groups. Animals were not treated in the model control group, the positive control group (mesalazine enteric tablet, 420 mg·kg^−1·d^−1), the andrographolide low-dose intragastric group (30 mg·kg^−1·d^−1), the andrographolide high-dose intragastric group (90 mg·kg^−1·d^−1), the andrographolide low-dose intracolonical group (30 mg·kg^−1·d^−1) and the andrographolide high-dose intracolonical group (90 mg·kg^−1·d^−1).
5. Method • 5.1 Method of making UC model: the rats were anesthetized. 2 mm-diameter latex tube was gently inserted into the position about 8 cm inside the body of the rats through anus, and TNBS in 50% ethanol solution (TNBS 125 mg/kg) was injected into intestinal lumen with an injector by one time, 0.5 ml/rat. The tail of the rat was lifted up for 30 s to make the model making agent (i.e., TNBS) fully infiltrate into the intestinal lumen of the rats. • 5.2 Method of administration: the same dose (1 mL/100 g) was adopted in both intragastric and intracolonical administration, once daily for consecutive 5 days. • 5.3 Method for sampling in experiment: 2 hours after the last administration, the rats were killed by cervical vertebra dislocation and abdomen was opened to separate the colon. Along mesenteric side, the intestinal lumen was cut and rinsed with 4° C. normal saline and spread on a plastic plate. • 5.4 Scoring method for colon gross morphological injury was referred to scoring method for mucosal injury (Bjelkengren G, Aronsen K F, Augustsson N E, etc. Radioprotective effect of local administration of lysine vasopressin and triglycyl lysine vasopressin on the rectal mucosa in rats[J]. Acta Oncol, 1995, 34(4):487-92) to record the mucosal injury score: dotted line blooding and small red spots (<1 mm): 1 score, piece blooding and big red spots (=1 mm): 3 score; and erosion and ulcer: 5 score.
(§1) Data were expressed as mean+standard deviation (x±S). All numerical variables were analyzed with SPSS13.0 software by one-way ANOVA. T-test analysis was used for inter-group comparison.

Assay [2] has as its system DSS-induced UC mice. As to the kind of experiment: DSS-induced UC mouse model, disease active index. The note with it: mesalazine enteric tablet 227.5 mg/kg/d.
Text: 4 Dose Designing and Grouping • 4.1 Grouping: quarantine-qualified 84 mice were randomly divided into 6 groups: the model control group, the positive control group, the tested drug low-dose intragastric group, the tested drug high-dose intragastric group, the tested drug low-dose intracolonical group and the tested drug high-dose intracolonical group, 14 mice per group. All animals drank 5% DSS solution daily for consecutive 14 days to establish UC model. Animals were administrated with the drug for treatment on the 2nd day after being given 5% DSS drinking water. • 4.2 Dose: in this study, dose of administration of the mice in all groups was designed on the basis of client's requirements, and the same doses were adopted in both intragastric and intracolonical groups. Animals were not treated in the model control group, the positive control group (mesalazine enteric tablet, 227.5 mg·kg^−1·d^−1), the andrographolide low-dose intragastric group (60 mg·kg^1·d^−1), the andrographolide high-dose intragastric group (180 mg·kg^−1·d^−1), the andrographolide low-dose intracolonical group (60 mg·kg^−1·d^−1) and the andrographolide high-dose intracolonical group (180 mg·kg^−1·d^−1).
5 Method • 5.1 Method of making UC model: all animals drank 5% DSS solution daily for consecutive 14 days. • 5.2 Method of administration: on the 2nd day after modeling, the mice were treated intragastrically or intracolonically with the drug at 1 mL/100 g once a day for consecutive 14 days. • 5.3 Method for sampling in experiment: 2 hours after the last administration, the mice were killed by cervical vertebra dislocation and abdomen was opened to separate the colon. Along mesenteric side, the intestinal lumen was cut and rinsed with 4° C. normal saline and spread on a plastic plate. • 5.4 Method for evaluating disease active index (DAI): the disease active index was assessed at the 7th and 14th day after administration. The method was presented together with the following three parameters: the body weight loss percentages (unchanged BW: 0 score, 1˜5: 1 score, 5˜10: 2 score, 10˜15: 3 score, more than 15: 4 score), stool viscosity (normal stool: 0 score, loosen stool: 2 score, diarrhea: 4 score) and blood stool (normal stool: 0 score, occult blood stool: 2 score and positive blood stool: 4 score). Total score of three parameters was divided by 3 to give the DAI, namely DAI=(BW index score+stool character score+stool blood score)/3.
6 Observation Indices • 6.1 Observation: the general clinical symptoms in the mice were observed daily from the beginning to the end of the experiment, and the stool, mental status and death status were recorded. • 6.2 Body weight: BW was recorded weekly from the beginning to the end of the experiment. • 6.3 Calculation of DAI: DAI was calculated on the 7th and 14th day after administration so as to assess disease activity. • 6.4 The colon mucosal tissue 8˜10 cm away from the anus was sampled, embedded with paraffin and stained with routine HE. Colon mucosal injury was observed by a microscope and histological injury was scored based on the following indices: ulcer inflammatory granuloma, fibrosis and pathological degree.
as §1

In assay [3] the test system is zebra fish Crohn's disease model. As to the kind of experiment: Zebra fish Crohn's disease model (TNBS), efficacy. The note with it: intestinal tissue; prednisolone 10 μM; x ± SE, n = 10.
The test system of assay [4] is TNBS-induced colitis mice. In words: TNBS-induced UC (colitis) mouse model. The method, then: 5% (w/v) TNBS solution was diluted with double-distilled water and mixed with 50% (v/v) ethanol in equal volume to have 1.5% (w/v) TNBS solution. In the model control group, the mice were anesthetized with 1 wt % pentobarbital solution at a dose of 0.05 ml/10 g body weight. After being anesthetized, the mice were administrated with 1.5% (w/v) TNBS solution at a dose of 0.1 ml/mouse by gently inserting stomach perfusion device to about 3 cm depth via anus and arriving at the colon, and the IBD was induced. In the saline group, the saline was gently injected into the colon at a dose of 0.1 ml/mouse. In the normal control group, 50% (v/v) ethanol was gently injected into the colon at a dose of 0.1 ml mouse.
After one week adaptive feeding, all animals were randomly divided into 5 groups according to body weight, 10 mice in one group: the normal control group, the model control group, the andrographolide low-dose group (20 mg/kg/d), the andrographolide high-dose group (40 mg/kg/d) and the positive control group (Sulfasalazine group, 300 mg/kg/d). Two hours after making model, the animals in each treating groups were orally administrated twice daily with the andrographolide and once daily in the positive control group. After successive administration for 7 days, the abdomen was opened 24 hours after the last administration to observe adhesion degree between the colon and other organs. The colon was separated and weighed.
1. Body weight: after making model, body weight was measured every day to observe the change in the animals.
2. Evaluation of inflammation: the abdomen was opened 24 hours after the last administration to observe adhesion degree between the colon and other organs. Every segment of the colon was taken out and weighed to calculate the percentage of the colon weight to body weight, as the colon index. The formula was presented as follows: Decrease rate of colon specific weight=(colon index of the model control group−colon index of the treatment group)/colon index of the model control group×100%
3. Histopathological examination: a part of the colon was taken to prepare the pathological section, and the standard for score was as follows: • 0 score, no inflammatory symptoms; • 1 score, low-grade inflammation with no structure change; • 2 score, low-grade leukocyte infiltration; • 3 score, high-grade leukocyte infiltration, high vascular density, crypt extension, thickened colon wall and superficial ulcer • 4 score, high-grade leukocyte infiltrating exceeding to mucous layer, crypt extension, decrease of goblet cell, high vascular density, thickened colon wall and extensive ulcer
SPSS11.5 software was used for analysis and the data were expressed as x±S. Variance analysis was used for comparison of significant difference among groups.

[5] abbreviates: mesalazine enteric tablet 420 mg/kg, once daily 5 days.
[6] abbreviates: sulfasalazine 300 mg/kg/d, once daily, 7 days.

For `Nc1ccc(O)c(C(=O)O)c1` [Positive control group, mesalazine, reference compound], in assay [1] (setting [5]), the “Gross morphological injury score” value was found to be 3.16 ± 1.97 and the Ulcer ratio was 35.45* %. For the same compound, the “Formless watery stool symptoms, course” value in assay [1] (positive control group 420 mg/kg) is listed as “most of watery stool symptoms disappeared in the rats on the 5th˜6th days”. In assay [2], the “DAI on the 7th day” value stood at 1.31 ± 0.14 and the “DAI on the 14th day” value is given as 1.10 ± 0.55.
Turning to `C[C@]12C=CC(=O)C=C1CC[C@@H]1[C@@H]2[C@@H](O)C[C@@]2(C)[C@H]1CC[C@]2(O)C(=O)CO` [prednisolone, reference compound], the “Number of Neutrophil” value in assay [3] came out at 14 ± 0.60.
On to `O=C(O)c1cc(/N=N/c2ccc(S(=O)(=O)Nc3ccccn3)cc2)ccc1O` [Sulfasalazine, reference compound], for which, in assay [4] (FIG. 1, treated groups), the “Body weight increase compared with the model control group” value is “increased faster than that in the model control group”. In addition, the Colon scores in assay [4] (histopathological score 0-4, sulfasalazine 300 mg/kg/d, 7 days) is reported as 2.8*. In assay [4] (percentage of colon weight to body weight, sulfasalazine 300 mg/kg/d, 7 days), this compound returned a Colon indices of 1.75 ± 0.43. Further, in assay [4] (setting [6]), the Body weight worked out at 19.13 ± 0.99 g and the Colon weight came to 0.33 ± 0.06 g. In addition, the “Intestinal elasticity compared with the model control group” value in assay [4] (treated groups, after 7 days) is recorded as “higher than that in the model control group”. The “Decrease rate of colon specific weight” value in assay [4] (vs model control group, sulfasalazine 300 mg/kg/d, 7 days) worked out at 47.87%.
